Consider one sequence from patent US20260258425A1, “MALT1 TUMOR INHIBITOR, PHARMACEUTICAL COMPOSITION CONTAINING THE SAME, AND APPLICATIONS THEREOF” (XZYP (BEIJING) BIOTECH CO., LTD, priority 2023, published 2026).

This data set concerns B16F10 cells. The experiment in a line: B16F10 subcutaneous melanoma model, intratumoral ASO, tumor volume. Format: in vivo, mouse. Particulars: mean, n=10. The source says: Based on the intratumoral experimental data of various mouse breast cancer models and melanoma models (administration started 7 days later, once every 3 days), this example studies the effect comparison between the ASO prodrug (ASO24, whose sequence is shown in SEQ ID No. 2) and PD-1/PD-L1, as well as the effect of their combination.
1×10^5 E0771 cells were orthotopically injected into the fat pad of wild-type mice. Starting from day 7, PD-1 antibody (BioXCell #BE0033, clone J43, the same below) monotherapy, ASO monotherapy, or combined PD-1 antibody and ASO therapy was initiated. For anti-PD-1 antibody monotherapy, intraperitoneal injection was performed once a week at a dose of 3 mg/kg starting 7 days after tumor transplantation, and the control group was injected with DPBS. For MALT1 ASO monotherapy, in vivo-jetPEI®, in vivo DNA transfection kit was used according to the instructions. Intratumoral injection was performed twice a week at a dose of 5 nmol starting 7 days after tumor transplantation, and the control group was injected with solvent or nontarget ASO. Combined therapy will receive the two specified monotherapies. Tumor measurement was started after administration, once every three days. n=12. Data are expressed as mean. Statistical analysis was performed using Two way ANOVA. ** represents p <0.01.
1×10^5 B16F10 cells were subcutaneously injected near the subcutaneous tissue of the groin of wild-type mice. Starting from day 7, PD-1 antibody monotherapy, ASO monotherapy, or combined PD-1 antibody and ASO therapy was initiated. n=10. Data are expressed as mean. Statistical analysis was performed using Two way ANOVA. ** represents p<0.01.

Turning to “GAAGTTCATGAGCCTTGGCCC (antisense GAAGUUCAUGAGCCUUGGCCC; called an ASO prodrug, chemistry not given here) [ASO24]”, the Tumor volume was determined as 0 mm^3 (Day 0, B16F10 subcutaneous near groin, wild-type mice, treatment from day 7, ASO intratumoral); 49 mm^3 (Day 7 (start of treatment), B16F10 subcutaneous, ASO intratumoral); 26 mm^3 (Day 10, B16F10 subcutaneous, treatment from day 7, ASO intratumoral); 129 mm^3 (Day 13, B16F10 subcutaneous, treatment from day 7, ASO intratumoral); 311 mm^3 (Day 16, B16F10 subcutaneous, treatment from day 7, ASO intratumoral).
